Values of other authors in US10332616B2, “Movable type method applied to protein-ligand binding” (University of Florida Research Foundation, Inc., priority 2013, dated 2019).
Where two headings read alike, the source gives them in different places.

[1] = aqueous solvation free energy, charged compounds (ions)
[2] = experimental solvation free energy, neutral compounds test set
[3] = experimental solvation free energy, test set with 372 neutral compounds

Compound	Exp. ΔGsolv [1] [kcal/mol]	Exp. ΔGsolv [2] [kcal/mol]	other results
CN [i003, methylamine, reference compound]	-76.40		
CCCN [i004, n-propylamine, reference compound]	-71.50		
C=CCN [i008, allylamine, reference compound]	-72.00		
Cc1cccc(N)c1 [i020, 3-methylaniline, reference compound]	-69.60		
Cc1ccc(N)cc1 [i021, 4-methylaniline, reference compound]	-69.80		
Nc1cccc(N)c1 [i023, 3-aminoaniline, reference compound]	-65.80		
N [i047, ammonia, reference compound]	-85.20		
CC(=O)O [i059, aceticacid, reference compound]	-77.60		
CCC(=O)O [i060, propanoicacid, reference compound]	-76.20		
CCCCCC(=O)O [i061, hexanoicacid, reference compound]	-74.60		
C=CC(=O)O [i062, acrylicacid, reference compound]	-74.00		
CC(=O)C(=O)O [i063, pyruvicacid, reference compound]	-68.50		
O=C(O)c1ccccc1 [i064, benzoicacid, reference compound]	-71.20		
COc1ccc(N)cc1 [i093, 4-methoxyaniline, reference compound]	-71.20		
O=C(O)C(F)(F)F [i118, trifluoroaceticacid, reference compound]	-59.30		
O=C(O)CCl [i119, chloroaceticacid, reference compound]	-69.70		
O=C(O)C(Cl)Cl [i120, dichloroaceticacid, reference compound]	-62.30		
Nc1cccc(Cl)c1 [i125, 3-chloroaniline, reference compound]	-74.70		
COO [methylperoxide, reference compound]			ΔGsol experimental value (neutral molecule): -5.28 kcal/mol
Cc1ccccc1N [n009]		-5.56	
Cc1ccc(N)cc1 [n011]		-5.55	

Compound	Exp. ΔGsolv [1] [kcal/mol]	Exp. ΔGsolv [2] [kcal/mol]	other results
CN(C)c1ccccc1 [n014]		-3.58	
CC(=O)OCC(COC(C)=O)OC(C)=O [test0001]		-8.84	
FC(F)(F)c1cccc(C(F)(F)F)c1 [test0004]			Exp. ΔGsolv [3]: 1.07 kcal/mol
COc1ccc(C(=O)N(C)C)cc1 [test0005]		-11.01	
Cc1ccc(C(=O)N(C)C)cc1 [test0006]		-9.76	
ClCCOCCCl [test0007]		-4.23	
CCOC(C)OCC [test0009]		-3.28	
COCOC [test0012]		-2.93	
CC(=O)OCCOC(C)=O [test0013]		-6.34	
CCOCCOCC [test0014]		-3.54	
c1c[nH]cn1 [test0017]			Exp. ΔGsolv [3]: -9.81 kcal/mol
CCCCO[N+](=O)[O-] [test1003]			Exp. ΔGsolv [3]: -2.1 kcal/mol
CCC(C)O[N+](=O)[O-] (centres unmarked) [test1004]			Exp. ΔGsolv [3]: -1.8 kcal/mol
CC(C)CO[N+](=O)[O-] [test1005]			Exp. ΔGsolv [3]: -1.9 kcal/mol
CCc1cccc(CC)c1N(COC)C(=O)CCl [test1007]		-8.2	
CNC(=O)O/N=C/C(C)(C)SC [test1008]		-9.8	
CCNc1nc(NC(C)C)nc(SC)n1 [test1009]			Exp. ΔGsolv [3]: -7.7 kcal/mol
COP(=S)(OC)SCn1nnc2ccccc2c1=O [test1010]		-10	
CCCCN(CC)c1c([N+](=O)[O-])cc(C(F)(F)F)cc1[N+](=O)[O-] [test1011]		-3.5	
COC(=O)c1ccccc1CS(=O)(=O)NC(=O)Nc1nc(OC)cc(OC)n1 [test1012]		-17.2	
